Like-named read-outs stand apart in the source and are kept apart here. Square brackets hold non-standard residues; d marks the D form. Peptide text beside a SMILES is read from it.
Target: T1, Human recombinant melanocortin MCI receptors (Homo sapiens, UniProt Q01726)
T1 construct: purchased Eurofins Discovery Item 251100; host or cells: CHO-K1
Test: MC1 Human Melanocortin GPCR Binding (Agonist Radioligand) competition assay (Eurofins Item 251100)
Experimental: The binding of Group A MCIR peptide antagonists of the disclosure was evaluated in a competition assay (MC1 Human Melanocortin GPCR Binding (Agonist Radioligand) Assay, Item 251100, Eurofins Discovery). […] Human recombinant melanocortin MCI receptors were expressed in CHO-K1 cells in modified HEPES-KOH buffer pH 7.0. […] Non-specific binding was estimated in the presence of 1 μM NDP-α-MSH. Receptors were filtered and washed, and the filters counted to determine [^125I] NDP-α-MSH specifically bound. Peptide antagonists of the disclosure having amino acid sequences as set forth in SEQ ID NOS: 11, 16, 25, 27, 32, 35, and 40 (each having a C-terminal —NH2) were screened at five concentrations, as well as a positive control, SEQ ID NO: 1 (Melanostatine-5). Inhibition curves were obtained by determining the reduction of bound α-MSH in the presence of an amount of, and/or by increasing amounts of, each peptide antagonist. Non-specific binding of peptide was estimated separately in the presence of a vast excess (1 mM) of unlabeled α-MSH, which occupies all the available receptor binding sites. Based on the competitive binding curve, the IC50 values were determined (Eurofins or AAT Bioquest IC50 calculator). […] The binding of Group A MCIR peptide antagonists of the disclosure was evaluated in a competition assay (MC1 Human Melanocortin GPCR Binding (Agonist Radioligand) Assay, Item 251100, Eurofins Discovery). […] Human recombinant melanocortin MCI receptors were expressed in CHO-K1 cells in modified HEPES-KOH buffer pH 7.0. […] Non-specific binding was estimated in the presence of 1 μM NDP-α-MSH. Receptors were filtered and washed, and the filters counted to determine [^125I]NDP-α-MSH specifically bound. Peptide antagonists of the disclosure having amino acid sequences as set forth in SEQ ID NOS: 11, 16, 25, 27, 32, 35, and 40 were screened at five concentrations. Inhibition curves were obtained by determining the reduction of bound α-MSH in the presence of an amount of, and/or by increasing amounts of, each peptide antagonist. […] Based on the percent inhibition relative to the agonist the IC50 values were determined (Eurofins or AAT Bioquest IC50 calculator).

[1] = Example 7, Table 7, binned, screened at five concentrations, read-out: IC50
[2] = stated as 'in some embodiments', broadest range, read-out: IC50 value using a competition assay

T1 sequence (Q01726 whole entry): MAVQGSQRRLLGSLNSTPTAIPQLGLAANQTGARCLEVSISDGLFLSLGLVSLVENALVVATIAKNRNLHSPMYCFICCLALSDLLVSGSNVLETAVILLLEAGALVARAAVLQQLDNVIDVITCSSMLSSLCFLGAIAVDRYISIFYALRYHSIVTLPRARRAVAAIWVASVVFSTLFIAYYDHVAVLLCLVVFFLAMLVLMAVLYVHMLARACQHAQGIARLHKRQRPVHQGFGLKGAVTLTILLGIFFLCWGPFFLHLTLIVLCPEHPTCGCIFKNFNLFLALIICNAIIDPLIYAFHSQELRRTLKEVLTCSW

Structure (SMILES)	IC50 [1]	other results
CSCC[C@H](N)C(=O)N1CCC[C@H]1C(=O)N[C@H](Cc1ccccc1)C(=O)N[C@@H](CCCNC(=N)N)C(=O)N[C@H](Cc1c[nH]c2ccccc12)C(=O)N[C@@H](Cc1ccccc1)C(=O)N[C@@H](CCCCN)C(=O)N1CCC[C@H]1C(=O)N[C@H](C(N)=O)C(C)C [SEQ ID NO: 1, Met-Pro-D-Phe-Arg-D-Trp-Phe-Lys-Pro-Val, reference compound] (H-MP[dF]R[dW]FKPV-NH2)	–	IC50 (IC50, Example 7, Table 7, binned, screened at five concentrations): < 200 nM; IC50 (IC50 value, Example 1, competition with 0.04 nM [125I]NDP-α-MSH, 120 minutes at 37° C): 120 nM
CC(C)[C@H](NC(=O)[C@@H]1CCCN1C(=O)[C@H](CCCCN)NC(=O)[C@H](Cc1ccccc1)NC(=O)[C@@H](Cc1c[nH]c2ccccc12)NC(=O)[C@H](CCCNC(=N)N)NC(=O)[C@@H](Cc1ccccc1)NC(=O)[C@@H](NC(=O)[C@H](C)N)C(C)C)C(N)=O [SEQ ID NO: 11, Ala-Val-dPhe-Arg-dTrp-Phe-Lys-Pro-Val-NH2] (H-AV[dF]R[dW]FKPV-NH2)	200 to 500 nM	–
CC(C)[C@H](NC(=O)[C@@H]1CCCN1C(=O)[C@H](CCCCN)NC(=O)[C@H](Cc1ccccc1)NC(=O)[C@@H](Cc1c[nH]c2ccccc12)NC(=O)[C@H](CCCNC(=N)N)NC(=O)[C@@H](Cc1ccccc1)NC(=O)[C@@H](NC(=O)[C@@H](N)Cc1ccccc1)C(C)C)C(N)=O [SEQ ID NO: 16, Phe-Val-dPhe-Arg-dTrp-Phe-Lys-Pro-Val-NH2] (H-FV[dF]R[dW]FKPV-NH2)	< 200 nM	IC50 [2]: 70 to 160 nM
CC(C)[C@H](NC(=O)[C@@H]1CCCN1C(=O)[C@H](CCCCN)NC(=O)[C@H](Cc1ccccc1)NC(=O)[C@@H](Cc1c[nH]c2ccccc12)NC(=O)[C@H](CCCNC(=N)N)NC(=O)[C@@H](Cc1ccccc1)NC(=O)[C@@H](NC(=O)[C@@H](N)CCC(=O)O)C(C)C)C(N)=O [SEQ ID NO: 25, Glu-Val-dPhe-Arg-dTrp-Phe-Lys-Pro-Val-NH2] (H-EV[dF]R[dW]FKPV-NH2)	> 500 nM	–
CSCC[C@H](N)C(=O)N[C@H](C(=O)N[C@@H](Cc1ccccc1)C(=O)N[C@@H](CCCNC(=N)N)C(=O)N[C@H](Cc1c[nH]c2ccccc12)C(=O)N[C@@H](Cc1ccccc1)C(=O)N[C@@H](CCCCN)C(=O)N1CCC[C@H]1C(=O)N[C@H](C(N)=O)C(C)C)C(C)C [SEQ ID NO: 27, Met-Val-Phe-Arg-dTrp-Phe-Lys-Pro-Val-NH2] (H-MVFR[dW]FKPV-NH2)	> 500 nM	–
CC[C@H](C)[C@H](N)C(=O)N[C@@H](Cc1ccccc1)C(=O)N[C@@H](CCCNC(=N)N)C(=O)N[C@H](Cc1c[nH]c2ccccc12)C(=O)N[C@@H](Cc1ccccc1)C(=O)N[C@@H](CCCCN)C(=O)N1CCC[C@H]1C(=O)N[C@H](C(N)=O)C(C)C [SEQ ID NO: 32, Ile-Phe-Arg-dTrp-Phe-Lys-Pro-Val-NH2] (H-IFR[dW]FKPV-NH2)	< 200 nM	IC50 [2]: 70 to 160 nM
CSCC[C@H](N)C(=O)N[C@H](C(=O)N[C@H](Cc1ccccc1)C(=O)N[C@H](CCCNC(=N)N)C(=O)N[C@H](Cc1c[nH]c2ccccc12)C(=O)N[C@@H](Cc1ccccc1)C(=O)N[C@@H](CCCCN)C(=O)N1CCC[C@H]1C(=O)N[C@H](C(N)=O)C(C)C)C(C)C [SEQ ID NO: 35, Met-Val-dPhe-dArg-dTrp-Phe-Lys-Pro-Val-NH2] (H-MV[dF][dR][dW]FKPV-NH2)	> 500 nM	–
CC(C)C[C@@H](NC(=O)[C@H](C)N)C(=O)N[C@H](Cc1ccccc1)C(=O)N[C@@H](CCCNC(=N)N)C(=O)N[C@H](Cc1c[nH]c2ccccc12)C(=O)N[C@@H](Cc1ccccc1)C(=O)N[C@@H](CCCCN)C(=O)N1CCC[C@H]1C(=O)N[C@H](C(N)=O)C(C)C [SEQ ID NO: 40, Ala-dLeu-dPhe-Arg-dTrp-Phe-Lys-Pro-Val-NH2] (H-A[dL][dF]R[dW]FKPV-NH2)	> 500 nM	–

Source: patent publication US20250026787A1, “PEPTIDES AND METHODS FOR REDUCING SKIN PIGMENTATION” (Glo Pharma, Inc., priority 2021, published 2025)
